Assay results from patent US20240197708A1, “TREATMENT OF PRODROMAL HUNTINGTON DISEASE” (Prilenia Neurotherapeutics Ltd., priority 2021, published 2024).

Tests used:
[1] = system: prodromal HD subjects; conditions: 45 mg bid
Experimental: The efficacy of pridopidine for treating prodromal HD is evaluated in a randomized, double-blind, placebo-controlled trial.

[2] = system: early-stage HD patients; conditions: disclosed in U.S. Pat. Nos. 10,322,119 and 11,207,310; cited from earlier work
[3] = CSF and/or plasma, 52 weeks, vs placebo

Structure (SMILES): CCCN1CCC(c2cccc(S(C)(=O)=O)c2)CC1 [Pridopidine, 4-[3-(methylsulfonyl)phenyl]-1-propyl-piperidine]
- DMN and functional connectivity ([1]; 52 weeks, vs placebo): maintenance of or less worsening
- PBA-s apathy score ([1]; 52 weeks, vs placebo): improvement or less worsening compared to placebo
- PBA-s total score ([1]; 52 weeks, vs placebo): improvement or less worsening compared to placebo
- cognitive assessments by the HD-CAB battery of tests ([1]; 52 weeks, vs placebo): improves or maintains or show less worsening compared to placebo
- cognitive assessments by the SDMT ([1]; 52 weeks, vs placebo): improves, maintains or shows less decline
- cortical thickness ([1]; 52 weeks, vs placebo): no decrease or less decrease compared to placebo
- motor measure Q-Motor finger tapping ([1]; 52 weeks, vs placebo): maintenance, improvement or less decline compared to placebo
- motor measure TMS ([1]; 52 weeks, vs placebo): maintenance, improvement or less decline compared to placebo
- total brain volume ([1]; 52 weeks, vs placebo): no decrease or less decrease compared to placebo
- ventricular volume ([1]; 52 weeks, vs placebo): decrease or maintenance of ventricular volume or a smaller increase in ventricular volume compared to placebo
- volume of the striatal structures caudate and putamen ([1]; 52 weeks, vs placebo): no decrease or less decrease compared to placebo
- level of fluid biomarker NfL [1, 3]: reduction or maintenance
- level of fluid biomarker phospho-tau [1, 3]: reduction or maintenance
- level of fluid biomarker proenkephalin [1, 3]: reduction or maintenance
- progression to manifest HD ([1]; over the course of the trial (52 weeks), vs placebo group): less participants in the pridopidine group progressed to manifest HD compared to the placebo group
- functional capacity [2]: maintains, improves or lessens the decline of functional capacity
